Experimental findings from US20140011799A1 (Bristol-Myers Squibb Company, priority 2012, published 2014) are described below.

This assay concerns the target T1, Endothelial lipase (EL) (Homo sapiens, UniProt Q9Y5X9).
T1 construct: HT-1080 cells that were transformed using RAGE technology (Athersys) to overexpress endogenous EL; endogenous in cells; conditioned medium used
T1 sequence (Q9Y5X9 21-500): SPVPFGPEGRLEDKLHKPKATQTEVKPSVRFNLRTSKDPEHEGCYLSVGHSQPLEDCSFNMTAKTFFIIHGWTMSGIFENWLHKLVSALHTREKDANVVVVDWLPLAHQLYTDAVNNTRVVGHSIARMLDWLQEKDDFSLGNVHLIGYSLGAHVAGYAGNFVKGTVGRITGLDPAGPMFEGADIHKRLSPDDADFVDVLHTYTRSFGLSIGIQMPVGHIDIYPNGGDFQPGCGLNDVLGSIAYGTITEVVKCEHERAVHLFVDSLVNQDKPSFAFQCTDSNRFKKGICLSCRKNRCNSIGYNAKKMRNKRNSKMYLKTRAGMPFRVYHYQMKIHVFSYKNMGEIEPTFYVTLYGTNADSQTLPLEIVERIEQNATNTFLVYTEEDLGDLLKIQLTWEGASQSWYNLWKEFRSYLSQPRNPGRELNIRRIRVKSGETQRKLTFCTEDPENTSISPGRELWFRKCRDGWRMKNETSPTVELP
The assay can be described thus: Endothelial lipase (EL) enzymatic assay, fluorescent substrate A10070 in DMPG vesicles. In kind it is biochemical. Conditions: EL from conditioned media of HT-1080 cells; compound preincubated 30 min at 37° C; read-out: EL IC50. The protocol: Endothelial lipase (EL) and hepatic lipase (HL) activities were measured using a fluorescent substrate, A10070, (Invitrogen, CA) doped into an artificial vesicle containing DMPG (Avanti Polar Lipids) as the excipient. Vesicles were prepared by combining 571 μL of 29 mM DMPG in a 1:1 mixture of MeOH and CHCl3 with 2000 μL of 1 mM A10070 in a 1:1 mixture of MeOH and CHCl3. The mixture was dried under nitrogen in multiple vials then resuspended in 20 mL total volume of 50 mM HEPES pH 8.0 buffer containing 50 mM NaCl and 0.2 mM EDTA. The sample was allowed to sit at room temperature for 15 min and then was sonicated 3×4 mins on ice with a Branson Sonicator using duty cycle 1. This preparation provides vesicles with a mole fraction of 0.11 for the FRET substrate.
The enzymatic assay was measured using 384-well white Optiplates. Each well contained 20 μL of assay buffer (50 mM HEPES pH 8.0, 50 mM NaCl and 1 mM CaCl2) and 0.25 μL of a DMSO solution containing a compound of interest. EL or HL (10 μL) was added and allowed to incubate with the compound for 30 min at 37° C. The source of EL was conditioned media obtained from HT-1080 cells that were transformed using RAGE technology (Athersys) to overexpress endogenous EL, and HL was partially purified from conditioned media obtained from COS cells overexpressing HL. The reaction was started by the addition of 10 μL of a 1:10 dilution of vesicles. The final total reaction volume was […]. The reaction rates were measured on a Gemini plate reader with an excitation wavelength of 490 nm and an emission wavelength of 530 nm. Readings were taken over a period of 60 minutes, and the slope between 300 and 900 secs of the readout was used to calculate the rate of the reaction.
As to `CC1(Cc2nnc(C(c3nc4ccc(-c5ccccc5)cc4s3)S(C)(=O)=O)o2)NC(=O)NC1=O` (stereo not shown) [Example 29, 5-methyl-5-((5-((methylsulfonyl)(6-phenyl-1,3-benzothiazol-2-yl)methyl)-1,3,4-oxadiazol-2-yl)methyl)-2,4-imidazolidinedione], the IC50 – broadly, the concentration that gives 50% inhibition – was below 10 nM. With `CS(=O)(=O)C(c1nnc(CC2NC(=O)NC2=O)o1)c1nc2ccc(-c3ccccc3)cc2s1` (stereo not shown) [Example 30, 5-((5-((methylsulfonyl) (6-phenyl-1,3-benzothiazol-2-yl)methyl)-1,3,4-oxadiazol-2-yl)methyl)-2,4-imidazolidinedione] the figure was 16 nM. Under `CS(=O)(=O)C(c1nnc(CC2SC(=O)NC2=O)o1)c1nc2ccc(-c3ccccc3)cc2s1` (stereo not shown) [Example 31, 5-((5-((methylsulfonyl) (6-phenyl-1,3-benzothiazol-2-yl)methyl)-1,3,4-oxadiazol-2-yl)methyl)-1,3-thiazolidine-2,4-dione] stands below 10 nM; under `O=C(OCc1ccccc1)N1CCC(S(=O)(=O)C(c2nnc(CS(=O)(=O)O)o2)c2nc3ccc(-c4ccccc4)cc3s2)CC1` (stereo not shown) [Example 32, (5-(((1-((benzyloxy)carbonyl)-4-piperidinyl)sulfonyl)(6-phenyl-1,3-benzothiazol-2-yl)methyl)-1,3,4-oxadiazol-2-yl)methanesulfonic acid], below 10 nM; under `CC(C)(C)OC(=O)N1CC(c2nnc(C(c3nc4ccc(-c5ccccc5)cc4s3)S(=O)(=O)Cc3ccccc3)o2)C1` (stereo not shown) [Example 33, tert-butyl 3-(5-((benzylsulfonyl) (6-phenylbenzo[d]thiazol-2-yl)methyl)-1,3,4-oxadiazol-2-yl)azetidine-1-carboxylate], 14 nM.

As to `O=S(=O)(O)Cc1nnc(C(c2nc3ccc(-c4ccccc4)cc3s2)S(=O)(=O)Cc2ccc(F)cc2)o1` (stereo not shown) [Example 34, (5-(((4-fluorobenzyl)sulfonyl)(6-phenylbenzo [d]thiazol-2-yl)methyl)-1,3,4-oxadiazol-2-yl)methanesulfonic acid], the IC50 worked out at 131 nM. Turning to `NS(=O)(=O)Cc1nnc(C(c2nc3ccc(-c4ccccc4)cc3s2)S(=O)(=O)CCC(F)(F)F)o1` (stereo not shown) [Example 35], the half-maximal inhibitory concentration (IC50) is below 10 nM.

For the compound `O=S(=O)(CCC(F)(F)F)NS(=O)(=O)Cc1nnc(C(c2nc3ccc(-c4ccccc4)cc3s2)S(=O)(=O)CCC(F)(F)F)o1` (stereo not shown) [Example 36, 3,3,3-trifluoro-N-(((5-((6-phenylbenzo[d]thiazol-2-yl)((3,3,3-trifluoropropyl)sulfonyl)methyl)-1,3,4-oxadiazol-2-yl)methyl)sulfonyl)propane-1-sulfonamide], the half-maximal inhibitory concentration (IC50) is below 10 nM. With `NS(=O)(=O)Cc1nnc(C(c2nc3ccc(-c4ccccc4)cc3s2)S(=O)(=O)Cc2ccccc2)o1` (stereo not shown) [Example 37, (5-((benzylsulfonyl)(6-phenylbenzo[d]thiazol-2-yl)methyl)-1,3,4-oxadiazol-2-yl)methanesulfonamide] the figure was below 10 nM; with `CC(C)(C)OC(=O)N1CC(S(=O)(=O)C(c2nnc(CS(N)(=O)=O)o2)c2nc3ccc(-c4ccccc4)cc3s2)C1` (stereo not shown) [Example 38, tert-butyl 3-(((6-phenylbenzo[d]thiazol-2-yl)(5-(sulfamoylmethyl)-1,3,4-oxadiazol-2-yl)methyl)sulfonyl)azetidine-1-carboxylate], below 10 nM; with `CN(C)C(=O)Cc1nnc(C(c2nc3ccc(-c4ccccc4)cc3s2)S(=O)(=O)Cc2ccccc2)o1` (stereo not shown) [Example 39, 2-(5-((benzylsulfonyl)(6-phenylbenzo[d]thiazol-2-yl)methyl)-1,3,4-oxadiazol-2-yl)-N,N-dimethylacetamide], 190 nM. `N#CC1(NC(=O)Cc2nnc(C(c3nc4ccc(-c5ccccc5)cc4s3)S(=O)(=O)Cc3ccccc3)o2)CC1` (stereo not shown) [Example 40, 2-(5-((benzylsulfonyl)(6-phenylbenzo[d]thiazol-2-yl)methyl)-1,3,4-oxadiazol-2-yl)-N-(1-cyanocyclopropyl)acetamide]: the IC50 is below 10 nM.

For the compound `CN(C)C(=O)CCc1nnc(C(c2nc3ccc(-c4ccccc4)cc3s2)S(=O)(=O)Cc2ccccc2)o1` (stereo not shown) [Example 41, 3-(5-((benzylsulfonyl)(6-phenylbenzo[d]thiazol-2-yl)methyl)-1,3,4-oxadiazol-2-yl)-N,N-dimethylpropanamide], the IC50 is 58 nM. With `C[C@]1(Cc2nnc(C(c3nc4ccc(-c5ccccc5)cc4s3)S(C)(=O)=O)o2)OC(=O)NC1=O` (stereo partly drawn) [Example 42, (5R)-5-Methyl-5-((5-((methylsulfonyl)(6-phenylbenzo[d]thiazol-2-yl)methyl)-1,3,4-oxadiazol-2-yl)methyl)oxazolidine-2,4-dione] the figure was below 10 nM.

For `COc1nc(-c2nnc(C(c3nc4ccc(-c5ccc(F)cc5)cc4s3)S(C)(=O)=O)o2)c(O)c(=O)[nH]1` (stereo not shown) [Example 43, 6-(5-((6-(4-Fluorophenyl)benzo[d]thiazol-2-yl)(methylsulfonyl)methyl)-1,3,4-oxadiazol-2-yl)-5-hydroxy-2-methoxypyrimidin-4(3H)-one], the IC50 was 14 nM.

For `COc1nc(-c2nnc(C(c3nc4ccc(-c5ccccc5)cc4s3)S(=O)(=O)CCC(F)(F)F)o2)c(O)c(=O)[nH]1` (stereo not shown) [Example 44, 5-Hydroxy-2-methoxy-6-(5-((6-phenylbenzo[d]thiazol-2-yl)((3,3,3-trifluoropropyl)sulfonyl)methyl)-1,3,4-oxadiazol-2-yl)pyrimidin-4(3H)-one], the IC50 came to 77 nM. Under `CS(=O)(=O)C(c1nnc(C[C@@H]2NS(=O)(=O)NC2=O)o1)c1nc2ccc(-c3ccccc3)cc2s1` (stereo partly drawn) [Example 45, (4S)-4-((5-((Methylsulfonyl)(6-phenylbenzo[d]thiazol-2-yl)methyl)-1,3,4-oxadiazol-2-yl)methyl)-1,2,5-thiadiazolidin-3-one 1,1-dioxide] stands below 10 nM; under `CS(=O)(=O)C(c1nnc(CNS(N)(=O)=O)o1)c1nc2ccc(-c3ccccc3)cc2s1` (stereo not shown) [Example 46, N-({5-[(M ethylsulfonyl)(6-phenyl-1,3-benzothiazol-2-yl)methyl]-1,3,4-oxadiazol-2-yl}methyl)sulfuric diamide], below 10 nM.

With `NS(=O)(=O)NCc1nnc(C(c2nc3ccc(-c4ccccc4)cc3s2)S(=O)(=O)Cc2ccccc2)o1` (stereo not shown) [Example 47, N-((5-((benzylsulfonyl) (6-phenyl-1,3-benzothiazol-2-yl)methyl)-1,3,4-oxadiazol-2-yl)methyl)sulfamide], the concentration for half-maximal inhibition (IC50) was below 10 nM. Under `NS(=O)(=O)NCc1nnc(C(c2nc3ccc(-c4ccccc4)cc3s2)S(=O)(=O)Cc2ccc(C(F)(F)F)cc2)o1` (stereo not shown) [Example 48, N-((5-((6-phenyl-1,3-benzothiazol-2-yl)((4-(trifluoromethyl)benzyl)sulfonyl)methyl)-1,3,4-oxadiazol-2-yl)methyl)sulfamide] stands below 10 nM. In the case of `CC(C)S(=O)(=O)C(c1nnc(CNS(N)(=O)=O)o1)c1nc2ccc(-c3ccccc3)cc2s1` (stereo not shown) [Example 49], the half-maximal inhibitory concentration (IC50) was below 10 nM.

For `NS(=O)(=O)NCc1nnc(C(c2nc3ccc(-c4ccccc4)cc3s2)S(=O)(=O)CCC(F)(F)F)o1` (stereo not shown) [Example 50, N-[(5-{(6-phenyl-1,3-benzothiazol-2-yl) [(3,3,3-trifluoropropyl)sulfonyl]methyl}-1,3,4-oxadiazol-2-yl)methyl]sulfuric diamide], the IC50 was below 10 nM.
